Source: patent US20250059199A1, “SOLID FORMS OF A TYK2 INHIBITOR, METHOD OF PREPARATION, AND USE THEREOF” (BeiGene Switzerland GmbH, priority 2021, published 2025)
Counter-ions that a name gives are not always drawn.

Key:
[1] = Bulk stability; format: physicochemical; conditions: 1 week
Procedure: Bulk stability of Compound 1 mesylate Form C, phosphate Form A, maleate Form A, fumarate Form B was investigated under 25° C./60% RH in an open container and under 40° C./75% RH in an open container over 1 week. Bulk stability of Compound 1 hydrochloride Form C and Form D, were evaluated under 25° C./60% RH in an open container, under 40° C./75% RH in an open container, and at 60° C. in a tight container over 1 week.

[2] = Solubility in aqueous pH buffers and bio-relevant solutions; format: physicochemical; conditions: for solubility: in some solvent systems (summary statement)
Procedure: Solubility of the Compound 1 mesylate Form C, phosphate Form A, maleate Form A, and fumarate Form B was measured in 6 aqueous pH buffers and bio-relevant solutions including pH 1.2 HCl solution (0.1 N), pH 4.5 acetate buffer (50 mM), water, pH 2.0 SGF, pH 6.5 FaSSIF-v1, and pH 5.0 FeSSIF-v1 at 37° C. for 1 h and 2 h. Residual solids after the solubility test were analyzed by XRPD.

[3] = Hygroscopicity by dynamic vapor sorption (DVS) test; format: physicochemical; conditions: for hygroscopicity: DVS at 25° C.; for Form and crystallinity after the DVS test: after DVS at 25° C.; for water absorbed: from 40% RH to 95% RH at 25° C.
Procedure: It absorbed about 1.1% water from 40% RH to 95% RH at 25° C. […] It absorbed about 2.3% water from 40% RH to 95% RH at 25° C. […] It absorbed about 0.4% water from 40% RH to 95% RH at 25° C. […] It absorbed about 0.29% water from 40% RH to 95% RH at 25° C. […] It absorbed about 0.14% water from 40% RH to 95% RH at 25° C. After the DVS test.

[4] = Feasibility of Formulation process (compression, dry grinding, granulation simulation); format: physicochemical; conditions: for tolerance to compression, dry grinding, granulation simulation: compression at 2, 5, 10 and 20 MPa, Form change and crystallinity
Procedure: Feasibility of Formulation process for Compound 1 mesylate Form C, phosphate Form A, maleate Form A, fumarate Form B hydrochloride Form C, and hydrochloride Form D were evaluated by compression (at 2 MPa, 5 MPa, 10 MPa, and 20 MPa), dry grinding, and granulation simulation experiments.

[5] = PK exposure; format: in vivo; conditions: summary statement, method not given
[6] = Physicochemical stability of Compound 1 Form A (equilibration, evaporation, anti-solvent, DSC heating-cooling cycle experiments); conditions: equilibration at 25° C. (18 solvent systems) and 50° C. (19), slow and fast evaporation

| bulk stability ([1]; 25° C./60% RH, open container) | bulk stability ([1]; 40° C./75% RH, open container) | solubility [2] | solubility at 1 h ([2]; pH 2, simulated gastric fluid, thermodynamic from solid, SGF, 37° C., at 1 h) [µg/mL] | hygroscopicity [3] | Form and crystallinity after the DVS test [3] | water absorbed [3] | PK exposure [5] | bulk stability ([1]; 60° C., tight container) | XRPD peaks after compression ([4]; compression at 5 MPa, 10 MPa, and 20 MPa) | XRPD peaks after compression ([4]; compression under 5 MPa and 10 MPa) | physicochemical stability (crystalline Form after the experiments) [6] | residual solids after the solubility test (XRPD) ([2]; SGF) | DVS behaviour ([3]; from 0% RH to 40% RH, 25° C.) | Form after dry grinding and compression ([4]; dry grinding and compression) | SMILES | tolerance to compression, dry grinding, granulation simulation [4] | tolerance to compression ([4]; compression) | DVS behaviour of the potential hydrate ([3]; RH<70%, 25° C.) | DVS behaviour ([3]; relative humidity above 40%, 25° C.) |
| --- | --- | --- | --- | --- | --- | --- | --- | --- | --- | --- | --- | --- | --- | --- | --- | --- | --- | --- | --- |
| physically and chemically stable | physically and chemically stable | relatively high solubility | ~740 | slightly hygroscopic | No Form and crystallinity change | about 2.3% | good PK exposure | – | – | – | – | – | – | – | CC(=O)Nc1cc(Nc2cc(C3CCOCC3)cc(S(C)(=O)=O)n2)c(-c2ccc3c(n2)OCC(C)(C)O3)cn1 [Compound 1 phosphate Form A, N-(5-(2,2-dimethyl-2,3-dihydro-[1,4]dioxino[2,3-b]pyridin-6-yl)-4-((6-(methylsulfonyl)-4-(tetrahydro-2H-pyran-4-yl)pyridin-2-yl)amino)pyridin-2-yl)acetamide] | good tolerance | – | – | – |
| physically and chemically stable | physically and chemically stable | relatively high solubility | – | slightly hygroscopic | No Form and crystallinity changed | about 0.4% | good PK exposure | – | – | – | – | – | – | – | CC(=O)Nc1cc(Nc2cc(C3CCOCC3)cc(S(C)(=O)=O)n2)c(-c2ccc3c(n2)OCC(C)(C)O3)cn1 [Compound 1 maleate Form A, N-(5-(2,2-dimethyl-2,3-dihydro-[1,4]dioxino[2,3-b]pyridin-6-yl)-4-((6-(methylsulfonyl)-4-(tetrahydro-2H-pyran-4-yl)pyridin-2-yl)amino)pyridin-2-yl)acetamide] | good tolerance | – | – | – |
| physically and chemically stable | physically and chemically stable | – | – | slightly hygroscopic | No Form changed | about 0.29% | – | physically and chemically stable | became slightly broad | – | – | – | – | – | CC(=O)Nc1cc(Nc2cc(C3CCOCC3)cc(S(C)(=O)=O)n2)c(-c2ccc3c(n2)OCC(C)(C)O3)cn1 [Compound 1 hydrochloride Form C, N-(5-(2,2-dimethyl-2,3-dihydro-[1,4]dioxino[2,3-b]pyridin-6-yl)-4-((6-(methylsulfonyl)-4-(tetrahydro-2H-pyran-4-yl)pyridin-2-yl)amino)pyridin-2-yl)acetamide] | good tolerance | good tolerance to compression with no Form change and no obvious crystallinity decrease | – | – |
| physically and chemically stable | physically and chemically stable | relatively high solubility | – | slightly hygroscopic | No Form and crystallinity changed | about 1.1% | good PK exposure | – | – | – | – | – | – | – | CC(=O)Nc1cc(Nc2cc(C3CCOCC3)cc(S(C)(=O)=O)n2)c(-c2ccc3c(n2)OCC(C)(C)O3)cn1 [Compound 1 mesylate Form C, N-(5-(2,2-dimethyl-2,3-dihydro-[1,4]dioxino[2,3-b]pyridin-6-yl)-4-((6-(methylsulfonyl)-4-(tetrahydro-2H-pyran-4-yl)pyridin-2-yl)amino)pyridin-2-yl)acetamide] | good tolerance | – | – | – |
| physically and chemically stable | physically and chemically stable | – | – | non-hygroscopic | No Form changed | about 0.14% | – | physically and chemically stable | – | became slightly broad | – | – | – | – | CC(=O)Nc1cc(Nc2cc(C3CCOCC3)cc(S(C)(=O)=O)n2)c(-c2ccc3c(n2)OCC(C)(C)O3)cn1 [Compound 1 hydrochloride Form D, N-(5-(2,2-dimethyl-2,3-dihydro-[1,4]dioxino[2,3-b]pyridin-6-yl)-4-((6-(methylsulfonyl)-4-(tetrahydro-2H-pyran-4-yl)pyridin-2-yl)amino)pyridin-2-yl)acetamide] | good tolerance | – | – | – |
| – | – | – | – | – | – | – | – | – | – | – | still kept the same Form | – | – | – | CC(=O)Nc1cc(Nc2cc(C3CCOCC3)cc(S(C)(=O)=O)n2)c(-c2ccc3c(n2)OCC(C)(C)O3)cn1 [Compound 1 Form A, N-(5-(2,2-dimethyl-2,3-dihydro-[1,4]dioxino[2,3-b]pyridin-6-yl)-4-((6-(methylsulfonyl)-4-(tetrahydro-2H-pyran-4-yl)pyridin-2-yl)amino)pyridin-2-yl)acetamide] | – | – | – | – |
| physically and chemically stable | physically and chemically stable | relatively high solubility | – | – | still Compound 1 fumarate Form B | – | good PK exposure | – | – | – | – | remained unchanged | stable | showed Form change | CC(=O)Nc1cc(Nc2cc(C3CCOCC3)cc(S(C)(=O)=O)n2)c(-c2ccc3c(n2)OCC(C)(C)O3)cn1 [Compound 1 fumarate Form B, N-(5-(2,2-dimethyl-2,3-dihydro-[1,4]dioxino[2,3-b]pyridin-6-yl)-4-((6-(methylsulfonyl)-4-(tetrahydro-2H-pyran-4-yl)pyridin-2-yl)amino)pyridin-2-yl)acetamide] | – | – | underwent dehydration when RH<70% and returns back to the anhydrate | started to absorb water when relative humidity was above 40% and converted to a potential hydrate |
